Values of other authors, collected in patent US12708665B2, “Anti-IL-1β antibody therapy in arrhythmogenic cardiomyopathy (ACM)” (Beth Israel Deaconess Medical Center, Inc., priority 2019, dated 2026).

Key:
[1] = test system: in vitro and in vivo models of ACM; conditions: multiple in vitro and in vivo models of ACM, human iPSC-cardiac myocytes from ACM patients; cited from earlier work
[2] = test system: patients with coronary artery disease; conditions: cited from earlier work

Compound | effect on ACM disease phenotype (arrhythmias, exercise-induced sudden death, myocyte injury and apoptosis, inflammation, contractile dysfunction) [1] | infectious complications related to immunosuppression ([2]; in vivo) | major adverse cardiac events ([2]; patients with coronary artery disease, CANTOS trial)
Cn1cc(C2=C(c3ccc(Cl)cc3Cl)C(=O)NC2=O)c2ccccc21 [SB216763] | prevent and/or reverse the full ACM disease phenotype |  | 
monoclonal antibody against IL-1β: monoclonal antibody against IL-1β used in the CANTOS trial (ref. 36) |  | not associated with significant infectious complications | significantly reduced
